Measured values as given in US11371055B2, “Herbicide resistance genes” (CORTEVA AGRISCIENCE LLC, priority 2005, dated 2022).
Marks after values point to notes of the source that are not given here.

Assays:
[1] = tested on: AAD-12 (v1) pDAB4101 corn events (4101(0)003.R.003.AF and 4101(0)005.R001.AF); experiment: Field tolerance of corn: visual injury and brace root injury, AAD-12 events; type: in vivo, Zea mays
Procedure: Seeds were planted with cone planter on 40-inch row spacing at Wayside and 30 inch spacing at Fowler. […] Herbicide treatments were 2,4-D (dimethylamine salt) at 1120, 2240 and 4480 g ae/ha, triclopyr at 840 g ae/ha, fluroxypyr at 280 g ae/ha and an untreated control. The AAD-12 (v1) events contained the AHAS gene as a selectable marker. The F2 corn events were segregating so the AAD-12 (v1) plants were treated with imazethapyr at 70 g ae/ha to remove the null plants. Herbicide treatments were applied when corn reached the V6 stage using compressed air backpack sprayer delivering 187 L/ha carrier volume at 130-200 kpa pressure. […]

[2] = tested on: AAD-12 (v1) T1 tobacco plants; experiment: Cross tolerance of T1 tobacco to phenoxy and pyridyloxy auxin herbicides; type: in vivo, Nicotiana tabacum
From the text: Two to four T0 individuals surviving high rates of 2,4-D and fluroxypyr were saved from each event and allowed to self fertilize in the greenhouse to give rise to T1 seed. The T1 seed was stratified, and sown into selection trays much like that of Arabidopsis (Example 7.4), followed by selective removal of untransformed nulls in this segregating population with 560 g ai/ha glufosinate (PAT gene selection). Survivors were transferred to individual 3-inch pots in the greenhouse. These lines provided high levels of resistance to 2,4-D in the T0 generation. Improved consistency of response is anticipated in T1 plants not having come directly from tissue culture. These plants were compared against wildtype KY160 tobacco. All plants were sprayed with a track sprayer set at 187 L/ha. The plants were sprayed from a range of 140-2240 g ac/ha 2,4-D dimethylamine salt (DMA), 70-1120 g ace/ha triclopyr or 35-560 g ae/ha fluroxypyr. All applications were formulated in water. Each treatment was replicated 2-4 times. Plants were evaluated at 3 and 14 days after treatment. Plants were assigned injury rating with respect to stunting, chlorosis, and necrosis. The T1 generation is segregating, so some variable response is expected due to difference in zygosity.

[3] = tested on: AAD-12 (v1) (pDAS1580) T2 tobacco plants; experiment: Auxinic herbicide cross tolerance of stacked tobacco, AAD-12 T2; type: in vivo, Nicotiana tabacum
Procedure: (§1) Homozygous AAD-12 (v1) (pDAS1580) and AAD-1 (v3) (pDAB721) plants (see PCT/US2005/014737 for the latter) were both reciprocally crossed and F1 seed was collected. The F1 seed from two reciprocal crosses of each gene were stratified and treated 4 reps of each cross were treated under the same spray regimen as used for the other testing with one of the following treatments: 70, 140, 280 g ac/ha fluroxypyr (selective for the AAD-12 (v1) gene); 280, 560, 1120 g ae/ha R-dichloroprop (selective for the AAD-1 (v3) gene); or 560, 1120, 2240 g ae/ha 2,4-D DMA (to confirm 2,4-D tolerance). Homozygous T2 plants of each gene were also planted for use as controls. Plants were graded at 3 and 14 DAT.

[4] = tested on: AAD-1 (v3) (pDAB721) T2 tobacco plants; experiment: Auxinic herbicide cross tolerance of stacked tobacco, AAD-1 T2; type: in vivo, Nicotiana tabacum
Procedure: as §1

[5] = tested on: AAD-12 x AAD-1 F1 cross tobacco; experiment: Auxinic herbicide cross tolerance of stacked tobacco, F1 cross; type: in vivo, Nicotiana tabacum; conditions: AAD-12 (v1) x AAD (v3) F1
Procedure: as §1

[6] = tested on: wild-type canola (Nex710); experiment: Field tolerance of canola, wild-type; type: in vivo, Brassica napus; conditions: for % Visual Injury at 14 DAT: Wild Type (Nex710)
Procedure: Field level tolerance trial was conducted on two AAD-12 (v1) events 3759(20)018.001 and 3759(18)030.001 and a wild-type canola (Nex710) in Fowler, Ind. The experimental design was a randomized complete block design with 3 replications. Herbicide treatments were 2,4-D (dimethylamine salt) at 280, 560, 1120, 2240 and 4480 g ac/ha, triclopyr at 840 g ae/ha, fluroxypyr at 280 g ae/ha and an untreated control. Within each herbicide treatment, single 20 ft row/event for event 3759(18)030.0011, 3759(18)018.001 and wild-type line (Nex710) were planted with a 4 row drill on 8 inch row spacing. Herbicide treatments were applied when canola reached the 4-6 leaf stage using compressed air backpack sprayer delivering 187 L/ha carrier volume at 130-200 kpa pressure. Visual injury ratings were taken at 7, 14 and 21 days after application.

[7] = tested on: Pat/Cry1f-Control Arabidopsis; experiment: Foliar-applied auxinic herbicides on transformed control Arabidopsis; type: in vivo, Arabidopsis thaliana; conditions: Pyridyloxyacetic auxins
Procedure: The ability of AAD-12 (v1) to provide resistance to other aryloxyalkanoate auxin herbicides in transgenic Arabidopsis was determined by foliar application of various substrates. T2 generation Arabidopsis seed was stratified, and sown into selection trays much like that of Arabidopsis (Example 6.4). A transformed-control line containing PAT and the insect resistance gene Cry1F was planted in a similar manner. Seedlings were transferred to individual 3-inch pots in the greenhouse. All plants were sprayed with the use of a track sprayer set at 187 L/ha. The plants were sprayed with a range of pyridyloxyacetate herbicides: 280-2240 g ae/ha triclopyr (Garlon 3A, Dow AgroSciences) and 280-2240 g ae/ha fluroxypyr (Starane, Dow AgroSciences); and the 2,4-D metabolite resulting from AAD-12 activity, 2,4-dichlorophenol (DCP, Sigma) (at a molar equivalent to 280-2240 g ac/ha of 2,4-D, technical grade DCP was used). All applications were formulated in water. Each treatment was replicated 3-4 times. Plants were evaluated at 3 and 14 days after treatment.

[8] = 2× rate of triclopyr (840 g ae/ha), 14 DAT

O=C(O)COc1ccc(Cl)cc1Cl [2,4-D, 2,4-dichlorophenoxyacetic acid]
visual injury ([1]; 2,4-D at the 1, 2 and 4× rates, V6 stage, 14 DAT): 0% | brace root injury ([1]; 4480 g ae/ha of 2,4-D): no brace root injury | % Visual Injury 14DAT ([1]; AAD-12 4101(0)003.R.003.AF, 1120 g ae/ha): 0% | % Visual Injury 14DAT ([1]; AAD-12 4101(0)003.R.003.AF, 2240 g ae/ha): 0% | % Visual Injury 14DAT ([1]; AAD-12 4101(0)003.R.003.AF, 4480 g ae/ha): 0% | % Visual Injury 14DAT ([1]; AAD-12 4101(0)005.001.AF, 1120 g ae/ha): 0% | % Visual Injury 14DAT ([1]; AAD-12 4101(0)005.001.AF, 2240 g ae/ha): 1% | % Visual Injury 14DAT ([1]; AAD-12 4101(0)005.001.AF, 4480 g ae/ha): 1% | Brace Root Injury Rating (0-10 scale) 28DAT ([1]; AAD-12 event 4101(0)003.R.003.AF, 1120 g ae/ha): 0 | Brace Root Injury Rating (0-10 scale) 28DAT ([1]; AAD-12 event 4101(0)003.R.003.AF, 2240 g ae/ha): 0 | Brace Root Injury Rating (0-10 scale) 28DAT ([1]; AAD-12 event 4101(0)003.R.003.AF, 4480 g ae/ha): 0 | Brace Root Injury Rating (0-10 scale) 28DAT ([1]; AAD-12 event 4101(0)005.001.AF, 1120 g ae/ha): 0 | Brace Root Injury Rating (0-10 scale) 28DAT ([1]; AAD-12 event 4101(0)005.001.AF, 2240 g ae/ha): 0 | Brace Root Injury Rating (0-10 scale) 28DAT ([1]; AAD-12 event 4101(0)005.001.AF, 4480 g ae/ha): 0 | injury ([2]; 4× field rate (2240 g ae/ha) for 2,4-D or below): No injury | Average % injury 14 DAT ([3]; 560 g ae/ha): 0% | Average % injury 14 DAT ([3]; 1120 g ae/ha): 0% | Average % injury 14 DAT ([3]; 2240 g ae/ha): 0% | Average % injury 14 DAT ([4]; 560 g ae/ha): 0% | Average % injury 14 DAT ([4]; 1120 g ae/ha): 4% | Average % injury 14 DAT ([4]; 2240 g ae/ha): 9% | Average % injury 14 DAT ([5]; 560 g ae/ha): 0% | Average % injury 14 DAT ([5]; 1120 g ae/ha): 0% | Average % injury 14 DAT ([5]; 2240 g ae/ha): 0% | visual injury ([6]; 2,4-D at 2240 g ae/ha (4× rate), 14DAT): 72% | % Visual Injury at 14 DAT ([6]; 280 GM AE/HA): 0 e % | % Visual Injury at 14 DAT ([6]; 560 GM AE/HA): 15 d % | % Visual Injury at 14 DAT ([6]; 1120 GM AE/HA): 33 bc % | % Visual Injury at 14 DAT ([6]; 2240 GM AE/HA): 48 a %

CNC.O=C(O)COc1ccc(Cl)cc1Cl [2,4-D DMA]
Average % Injury of Replicates 14 DAT ([2]; T1 1580(1)-004, 140 g ae/ha): 0% | Average % Injury of Replicates 14 DAT ([2]; T1 1580(1)-004, 560 g ae/ha): 0% | Average % Injury of Replicates 14 DAT ([2]; T1 1580(1)-004, 2240 g ae/ha): 0% | Average % Injury of Replicates 14 DAT ([2]; T1 1580(1)-018, 140 g ae/ha): 0% | Average % Injury of Replicates 14 DAT ([2]; T1 1580(1)-018, 560 g ae/ha): 0% | Average % Injury of Replicates 14 DAT ([2]; T1 1580(1)-018, 2240 g ae/ha): 0%

O=C(O)COc1nc(Cl)c(Cl)cc1Cl [triclopyr]
Ave % Injury 14DAT ([7]; 280 g ae/ha foliar): 52% | Ave % Injury 14DAT ([7]; 560 g ae/ha foliar): 58% | Ave % Injury 14DAT ([7]; 1120 g ae/ha foliar): 75* % | Ave % Injury 14DAT ([7]; 2240 g ae/ha foliar): 75* % | visual injury, average across the two events [1, 8]: 3% | % Visual Injury 14DAT ([1]; AAD-12 4101(0)003.R.003.AF, 840 g ae/ha): 3% | % Visual Injury 14DAT ([1]; AAD-12 4101(0)005.001.AF, 840 g ae/ha): 4% | Brace Root Injury Rating (0-10 scale) 28DAT ([1]; AAD-12 event 4101(0)003.R.003.AF, 840 g ae/ha): 0 | Brace Root Injury Rating (0-10 scale) 28DAT ([1]; AAD-12 event 4101(0)005.001.AF, 840 g ae/ha): 0 | brace root injury ([1]; Triclopyr at 840 g ae/ha): no brace root injury | injury ([2]; 70-1120 g ae/ha triclopyr, in one event line): Some injury | Average % Injury of Replicates 14 DAT ([2]; T1 1580(1)-004, 70 g ae/ha): 0% | Average % Injury of Replicates 14 DAT ([2]; T1 1580(1)-004, 280 g ae/ha): 0% | Average % Injury of Replicates 14 DAT ([2]; T1 1580(1)-004, 1120 g ae/ha): 0% | Average % Injury of Replicates 14 DAT ([2]; T1 1580(1)-018, 70 g ae/ha): 5% | Average % Injury of Replicates 14 DAT ([2]; T1 1580(1)-018, 280 g ae/ha): 5% | Average % Injury of Replicates 14 DAT ([2]; T1 1580(1)-018, 1120 g ae/ha): 8% | visual injury [6, 8]: 25% | % Visual Injury at 14 DAT ([6]; 840 GM AE/HA): 25 cd %

C[C@@H](Oc1ccc(Cl)cc1Cl)C(=O)O [(R)-dichlorprop, R-2,4-dichlorophenoxypropionic acid]
Average % injury 14 DAT ([3]; 280 g ae/ha): 15% | Average % injury 14 DAT ([3]; 560 g ae/ha): 50% | Average % injury 14 DAT ([3]; 1120 g ae/ha): 70% | Average % injury 14 DAT ([4]; 280 g ae/ha): 0% | Average % injury 14 DAT ([4]; 560 g ae/ha): 0% | Average % injury 14 DAT ([4]; 1120 g ae/ha): 3% | Average % injury 14 DAT ([5]; 280 g ae/ha): 0% | Average % injury 14 DAT ([5]; 560 g ae/ha): 0% | Average % injury 14 DAT ([5]; 1120 g ae/ha): 0%
